Reference: publication PMC10515382, “Aminochalcones Attenuate Neuronal Cell Death under Oxidative Damage via Sirtuin 1 Activity” (ACS Omega, 2023)

Experiments:
[1] = tested on: H2O2-induced SH-SY5Y cells; assay: Cell morphology observation in H2O2-induced SH-SY5Y cells; assay type: cell-based, human; conditions: 5 μM pretreatment 3 h, then 400 μM H2O2 24 h
Experimental: After adhering, the cells were treated with aminochalcones for 3 h. The culture media was refreshed, followed by an additional 24 h of exposure to 400 μM H2O2.

[2] = Cytotoxicity assay (MTT) against MRC-5 cells; assay type: cell-based; conditions: human, MRC-5 cells (normal embryonic lung cell line), read-out: Cytotoxic activity (IC50)
Experimental: MRC-5 cells were grown in DMEM supplemented with 100 U/mL penicillin–streptomycin and 10% FBS. Briefly, the cells suspended in the corresponding culture medium were inoculated in 96-well microtiter plates (Corning Inc., NY, USA) at 10,000–20,000 cells per well and then incubated at 37 °C under a humidified atmosphere with 5% CO2 for 24 h. An equal volume of additional medium containing serial dilutions of test compounds, positive control (doxorubicin), or negative control (DMSO) was added to the desired final concentrations. Microtiter plates were further incubated for 48 h. The cell viability in each well was determined by staining with the MTT assay reagent (Molecular Probes, Cat. no. M6494).[75]–[77] MTT solution ([…]) was added to all wells of the assay, and the plates were incubated for 2–4 h. Subsequently, DMSO was added to dissolve the resulting formazan by sonication. The plates were read on a microplate reader (Molecular Devices, USA) using a test wavelength of 550 nm and a reference wavelength of 650 nm. The IC50 value was determined as the concentration of compound that inhibited the cell growth by 50%.

[3] = tested on: H2O2-induced SH-SY5Y cells; assay: LDH assay of cell membrane damage in H2O2-induced SH-SY5Y cells; assay type: cell-based, human; conditions: 5 μM pretreatment, vs H2O2 alone
Experimental: LDH leakage into the culture medium of aminochalcones with or without H2O2-treated cells was assessed by using an LDH assay kit to determine the neuroprotective effect of aminochalcones against H2O2-induced cell damage. To prepare samples for the LDH test, 2 mL of SH-SY5Y cells at 1.0 × 10^5 cells/mL concentration was added and incubated overnight in 6-well plates at 37 °C. Then, each well was pretreated for 3 h with 5 μM aminochalcones or resveratrol before exposure to 400 μM H2O2 for another 24 h. Subsequently, the LDH assay kit (Cat. no. MAK066) from Sigma-Aldrich (St. Louis, MO, USA) was used to measure the LDH activity, following the manufacturer’s instructions. The assay relies on the conversion of lactate to pyruvate by the enzyme lactate dehydrogenase and further produces NADH as a product, giving rise to an increase in absorbance at 450 nm.

[4] = tested on: H2O2-induced SH-SY5Y cells; assay: Intracellular ROS production (DCFDA) in H2O2-induced SH-SY5Y cells; assay type: cell-based, human; conditions: for effect on intracellular ROS production: 5 μM pretreatment, vs H2O2 alone
Experimental: Green fluorescent DCF was generated by the oxidation of nonfluorescent carboxy-DCFDA, which is caused by intracellular ROS. SH-SY5Y cells (200 μL) at 1.0 × 10^5 cells/mL were seeded and incubated overnight in 96-well plates at 37 °C. Then, each well was pretreated for 3 h with 5 μM aminochalcones or resveratrol before exposure to 400 μM H2O2 for an additional 24 h. Subsequently, carboxy-H2DCFDA was introduced to the to a final concentration of 10 μM in the culture media and incubated at 37 °C for 30 min under dark conditions. Intracellular ROS production was instantly evaluated using a microplate reader at an emission wavelength of 528 nm and an excitation wavelength of 485 nm. The intracellular ROS production of the cells was expressed as percentages compared with the control group.[79]

[5] = tested on: H2O2-induced SH-SY5Y cells; assay: Cell viability in H2O2-induced SH-SY5Y cells (MTT assay); assay type: cell-based, human; conditions: 5 μM pretreatment 3 h, then 400 μM H2O2 24 h; for protective effect on cell viability: vs nonpretreated group
Experimental: Cell viability was evaluated using the MTT assay. […] Cells were pretreated for 3 h with aminochalcones or resveratrol at various concentrations ranging from 0 to 100 μM before being incubated with 400 μM H2O2 (Sigma-Aldrich, Cat. no. 31642) for 24 h. Cells treated only with culture media, DMEM with 10% FBS, were used as the control. Each well received 5 mg/mL of MTT solution at the end of the incubation time, and the samples were then incubated at 37 °C in the dark for 2–4 h. Following the removal of the solution, 0.04 N HCl in isopropyl alcohol was added to dissolve the formazan crystals. A microplate reader programed to read at 570 nm was used to detect the MTT formazan product. The absorbance of formazan is directly proportional to the number of viable cells. The viability of the cells was expressed in percentages compared with the viability of the control group.[23]

[6] = tested on: H2O2-induced SH-SY5Y cells; assay: Mitochondrial membrane potential (Rhodamine-123) in H2O2-induced SH-SY5Y cells; assay type: cell-based, human; conditions: 5 μM pretreatment, vs H2O2 alone
Experimental: Mitochondrial-specific fluorescent dye, Rhodamine-123 (Sigma-Aldrich, Cat. no. R8004), was used to determine the MMP. The reduction in the fluorescence signal correlated with the decrease in MMP, which referred to a decrease in the mitochondrial function. SH-SY5Y cells (200 μL) at 1.0 × 10^5 cells/mL were plated onto the 96-well plate and incubated overnight at 37 °C. Then, each well was pretreated for 3 h with 5 μM aminochalcones or resveratrol before being challenged with 400 μM H2O2 for further 24 h. Cells were then exposed to Rhodamine-123 at a final concentration of 10 μM in the culture media and incubated at 37 °C for 30 min under dark conditions. At the end of incubation, cells were washed twice with PBS to remove the excess dye. MMP levels were then measured with a microplate reader at excitation and emission wavelengths of 488 and 525 nm, respectively. The MMP of the cells was expressed as percentages compared with the control group.[80]

SH-SY5Y cells = assay: SH-SY5Y cell viability, compounds alone (MTT assay); assay type: cell-based, human; conditions: compounds alone at 10 μM, no H2O2
Experimental: Cell viability was evaluated using the MTT assay. Briefly, 96-well plates were seeded with SH-SY5Y cells at a density of 1 × 10^5 cells/mL and allowed to attach. Cells were pretreated for 3 h with aminochalcones or resveratrol at various concentrations ranging from 0 to 100 μM before being incubated with 400 μM H2O2 (Sigma-Aldrich, Cat. no. 31642) for 24 h. Cells treated only with culture media, DMEM with 10% FBS, were used as the control. Each well received 5 mg/mL of MTT solution at the end of the incubation time, and the samples were then incubated at 37 °C in the dark for 2–4 h. Following the removal of the solution, 0.04 N HCl in isopropyl alcohol was added to dissolve the formazan crystals. A microplate reader programed to read at 570 nm was used to detect the MTT formazan product. The absorbance of formazan is directly proportional to the number of viable cells. The viability of the cells was expressed in percentages compared with the viability of the control group.[23]

Structure (SMILES) | effect on cell morphology [1] | IC50 at 48 h [2] [µM] | effect on cell membrane damage [3] | effect on intracellular ROS production [4] | protective effect on cell viability [5] | effect on mitochondrial function [6] | effect on cell viability, compounds alone (SH-SY5Y cells) | melting point [°C] | activity at 5 µM ([4]; Homo sapiens, SH-SY5Y, 5 μM pretreatment 3 h, then 400 μM H2O2 24 h, H2O2 alone 135.54%, read-out: intracellular ROS production (fluorescence intensity, % of control)) [%] | viability at 5 µM ([5]; Homo sapiens, SH-SY5Y, read-out: cell viability (percentage relative to control)) [%]
COc1ccc(/C=C/C(=O)c2ccc(N)cc2)c(OC)c1OC [Compound 2, (E)-1-(4-Aminophenyl)-3-(2,3,4-trimethoxyphenyl)prop-2-en-1-one] | prevented morphological aberration | 99.3 ± 4.15 | reduced cell membrane damage | reduced intracellular ROS production | significantly improved the cell viability | prevented mitochondrial dysfunction | – | – | – | –
COc1cc(/C=C/C(=O)c2ccc(N)cc2)cc(OC)c1OC [Compound 3, (E)-1-(4-Aminophenyl)-3-(3,4,5-trimethoxyphenyl)prop-2-en-1-one] | prevented morphological aberration | 70.3 ± 3.78 | reduced cell membrane damage | reduced intracellular ROS production | significantly improved the cell viability | prevented mitochondrial dysfunction | hazardous to the treated cells | – | – | –
COc1ccc(/C=C/C(=O)c2ccc(N)cc2)cc1O [Compound 4, (E)-1-(4-Aminophenyl)-3-(3-hydroxy-4-methoxyphenyl)prop-2-en-1-one] | – | 115.3 ± 1.05 | – | – | low protective potential | – | hazardous to the treated cells | 187 to 189 | – | –
COc1cccc(/C=C/C(=O)c2ccc(N)cc2)c1 [Compound 5, (E)-1-(4-Aminophenyl)-3-(3-methoxyphenyl)prop-2-en-1-one] | prevented morphological aberration | 116 ± 8.08 | reduced cell membrane damage | reduced intracellular ROS production | significantly improved the cell viability | prevented mitochondrial dysfunction | – | – | – | –
COc1cccc2c1C(=O)c1c(O)c3c(c(O)c1C2=O)C[C@@](O)(C(=O)CO)C[C@@H]3O[C@H]1C[C@H](N)[C@H](O)[C@H](C)O1 [doxorubicin, reference compound] | – | 3.03 ± 0.09 | – | – | – | – | – | – | – | –
Oc1ccc(/C=C/c2cc(O)cc(O)c2)cc1 [resveratrol, reference compound] | morphological alterations were reduced | – | – | – | – | – | – | – | 123 ± 2 | 85
